Assay results taken from ChEMBL document CHEMBL5137017, “Identification of NVP-CLR457 as an Orally Bioavailable Non-CNS-Penetrant pan-Class IA Phosphoinositol-3-Kinase Inhibitor” (J Med Chem, 2022).

How the values were obtained:
[1] = Plasma protein binding in OF1 mouse plasma at 10 mg/kg,po or 3 mg/kg,iv measured after 4 hrs by rapid equilibrium dialysis method; format: ADME, organism-based; settings: read-out: PPB (converted)
Rat1 [2] = assay: Antitumor activity at rat Rat1 cells expressing myr-p110delta xenografted in athymic nude mouse assessed as T/C ratio at 20 mg/kg, po bid measured after 7 to 15 days; format: functional; settings: time 7-15 day
[3] = Tmax in Sprague-Dawley rat at 100 mg/kg, po measured upto 24 hrs by LC-MS/MS analysis; format: ADME, organism-based; settings: in vivo
[4] = Oral bioavailability in beagle dog at 0.3 mg/kg measured upto 24 hrs by LC-MS/MS analysis; format: ADME, organism-based, Canis lupus familiaris; settings: in vivo
[5] = Stability in human liver microsomes assessed as hepatic extraction preincubated for 3 mins followed by NADPH addition and measured after 60 mins; format: ADME, Microsome; settings: read-out: ERH
[6] = Dose normalized AUC in beagle dog at 0.3 mg/kg, po measured upto 24 hrs by LC-MS/MS analysis; format: ADME, organism-based, Canis lupus familiaris; settings: in vivo
[7] = Stability in mouse liver microsomes assessed as hepatic extraction preincubated for 3 mins followed by NADPH addition and measured after 60 mins; format: ADME, Microsome; settings: time 63 min, read-out: ERH
Rat1 [8] = assay: Antitumor activity at rat Rat1 cells expressing myr-p110alpha xenografted in athymic nude mouse assessed as tumor growth inhibition at 40 mg/kg, po bid measured after 9 days; format: functional; settings: Rat1, 216 h, time 9 day
Rat1 [9] = assay: Antitumor activity at rat Rat1 cells expressing myr-p110alpha xenografted in athymic nude mouse assessed as T/C ratio at 3 mg/kg, po qd measured after 14 to 22 days; format: functional; settings: time 14-22 day
[10] = Inhibition of PI3K PTEN mutant in human MDA-MB-436 cells assessed as reduction in phosphorylation of AKT at Ser473 residue by Western blot analysis; format: cell-based
[11] = Cmax in athymic nude mouse xenografted with rat Rat1 cells expressing myr-p110alpha at 10 mg/kg, po measured after 8 days by LC-MS/MS analysis; format: ADME, organism-based; set-up: dose 10 mg/kg, time 8 day, route po; settings: in vivo
[12] = AUC in Sprague-Dawley rat at 1 mg/kg, iv measured for 0.083 to 48 hrs by LC-MS/MS analysis; format: ADME, organism-based; set-up: time upper 48 hrs, dose 1 mg/kg, time lower 0.083 hrs, route iv; settings: in vivo
[13] = AUCinfinity in Beagle dog at 6 mg/kg, po measured upto 24 hrs using crystalline form of sample by LC-MS/MS analysis; format: ADME, organism-based, Canis lupus familiaris; set-up: dose 6 mg/kg, time < 24 hrs, route po; settings: in vivo
[14] = Plasma protein binding in beagle dog plasma at 0.3 mg/kg,po or 0.1 mg/kg,iv measured after 4 hrs by rapid equilibrium dialysis method; format: ADME, organism-based, Canis lupus familiaris; settings: read-out: PPB (converted)
Rat1 [15] = assay: Antitumor activity at rat Rat1 cells expressing myr-p110alpha xenografted in athymic nude mouse assessed as T/C ratio at 40 mg/kg, po bid measured after 15 to 24 days; format: functional; settings: time 15-24 day
[16] = Half life in Beagle dog at 5.4 mg/kg, po measured upto 24 hrs using PVP-ASD form of sample by LC-MS/MS analysis; format: ADME, organism-based, Canis lupus familiaris; settings: in vivo
[17] = Dose normalized AUC in Sprague-Dawley rat at 3 mg/kg, po measured upto 24 hrs by LC-MS/MS analysis; format: ADME, organism-based; settings: in vivo
[18] = Toxicity in athymic nude mouse xenografted with rat Rat1 cells expressing myr-p110delta assessed as drug tolerance at 20 mg/kg, po bid measured for 7 to 15 days; format: organism-based; settings: in vivo, time 7-15 day
[19] = Inhibition of PI3K PTEN mutant in human MDA-MB-468 cells assessed as reduction in phosphorylation of AKT at Ser473 residue by Western blot analysis; format: cell-based
[20] = target: Serine/threonine-protein kinase mTOR (Homo sapiens, UniProt P42345); assay: Displacement of Alexa Fluor labelled Tracer-314 from human N-terminal GST-tagged mTOR incubated for 1 hr by TR-FRET assay
[21] = target: Serine/threonine-protein kinase mTOR (Mus musculus, UniProt Q9JLN9); assay: Inhibition of mTOR in Tscl-/- null mouse MEF assessed as reduction on RPS6 phosphorylation at Ser235/236 residue by alpha-screen assay; format: cell-based
[22] = Volume of distribution at steady state in Sprague-Dawley rat at 3 mg/kg, po or iv measured upto 24 hrs by LC-MS/MS analysis; format: ADME, organism-based; settings: in vivo
[23] = Inhibition of wild type PI3K in human HCC1143 cells assessed as reduction in phosphorylation of AKT at Ser473 residue by Western blot analysis; format: cell-based
Rat1 [24] = assay: Antitumor activity at rat Rat1 cells expressing myr-p110alpha xenografted in athymic nude mouse assessed as tumor growth inhibition at 20 mg/kg, po bid measured after 9 days; format: functional; settings: Rat1, 216 h, time 9 day
[25] = target: T1, Phosphatidylinositol 4,5-bisphosphate 3-kinase catalytic subunit delta isoform (Homo sapiens, UniProt O00329); assay: Inhibition of PI3Kdelta (unknown origin) using phosphatidylinositol as substrate measured for 15 to 60 mins by TR-FRET based Adapta universal kinase assay
T1 sequence (O00329 whole entry): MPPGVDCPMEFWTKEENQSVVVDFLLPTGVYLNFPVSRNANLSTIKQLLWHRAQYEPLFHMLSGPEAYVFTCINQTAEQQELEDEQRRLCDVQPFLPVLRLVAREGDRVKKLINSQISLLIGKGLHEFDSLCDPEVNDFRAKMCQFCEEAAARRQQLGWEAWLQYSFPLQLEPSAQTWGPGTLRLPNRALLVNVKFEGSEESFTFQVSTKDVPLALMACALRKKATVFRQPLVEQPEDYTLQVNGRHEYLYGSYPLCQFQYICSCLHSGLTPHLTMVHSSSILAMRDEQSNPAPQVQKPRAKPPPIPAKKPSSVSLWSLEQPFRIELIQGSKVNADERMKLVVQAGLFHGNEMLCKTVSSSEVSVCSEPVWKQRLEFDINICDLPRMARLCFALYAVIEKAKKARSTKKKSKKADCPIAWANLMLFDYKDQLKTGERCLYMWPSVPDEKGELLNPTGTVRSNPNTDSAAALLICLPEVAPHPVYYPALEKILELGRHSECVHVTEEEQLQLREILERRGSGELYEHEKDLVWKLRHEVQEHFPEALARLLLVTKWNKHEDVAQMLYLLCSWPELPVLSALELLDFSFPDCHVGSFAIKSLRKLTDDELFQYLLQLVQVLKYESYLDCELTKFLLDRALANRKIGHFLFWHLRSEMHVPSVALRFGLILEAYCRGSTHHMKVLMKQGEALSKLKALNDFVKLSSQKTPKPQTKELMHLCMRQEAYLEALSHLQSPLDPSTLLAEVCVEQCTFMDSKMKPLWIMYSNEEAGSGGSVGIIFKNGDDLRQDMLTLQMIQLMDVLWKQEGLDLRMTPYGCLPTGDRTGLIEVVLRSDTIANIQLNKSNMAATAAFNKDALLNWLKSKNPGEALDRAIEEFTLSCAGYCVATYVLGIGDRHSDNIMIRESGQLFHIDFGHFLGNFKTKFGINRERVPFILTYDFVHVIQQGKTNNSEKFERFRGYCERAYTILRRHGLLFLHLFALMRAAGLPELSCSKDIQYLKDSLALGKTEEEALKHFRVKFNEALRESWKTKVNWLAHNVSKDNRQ

[26] = Dose normalized AUC in Sprague-Dawley rat at 100 mg/kg, po measured upto 24 hrs by LC-MS/MS analysis; format: ADME, organism-based; settings: in vivo

Compound: C[C@H]1OC(=O)N(c2nc(-c3cnc(N)nc3C(F)(F)F)cc(N3CCOCC3)n2)[C@H]1CO
- fraction unbound at 4 h [1]: 0.24
- T/C (Rat1 [2]): -0.52
- Tmax [3]: 24 h
- bioavailability [4]: 98%
- hepatic extraction ratio at 1 h [5]: 0.37
- AUC/dose [6]: 12970 nM·h
- hepatic extraction ratio at 1 h [7]: 0.34
- inhibition in vivo at 40 mg/kg (Rat1 [8]): > 80%
- T/C (Rat1 [9]): 0.43
- IC50 [10]: 0.179 µM
- Cmax [11]: 2280 nM
- AUC [12]: 1.77 µM·h
- AUC(0-inf) [13]: 44.6 µM·h
- fraction unbound at 4 h [14]: 0.29
- T/C (Rat1 [15]): -0.86
- half-life [16]: 9.9 h
- AUC/dose [17]: 1709 nM·h
- Activity [18]: Toxic
- IC50 [19]: 0.263 µM
- IC50 [20]: 2.47 µM
- IC50 [21]: 1.63 µM
- Vdss [22]: 4.4 L/kg
- IC50 [23]: 0.026 µM
- inhibition in vivo at 20 mg/kg (Rat1 [24]): > 80%
- IC50 [25]: 0.0083 µM
- AUC/dose [26]: 784 nM·h
